# Measurements from patent EP0134242B1, “[…] ANTIGEN” (NEW YORK UNIVERSITY, priority 1983, dated 1984).
# Assays:
# [1] = system: 2G3, 5H8, and 8B8 antibodies; assay: Inhibition immunoassays with peptide analogs, results in words for several antibodies together; assay type: binding, mouse; conditions: for inhibition of the reaction of antibodies 2G3, 5H8 and 8B8 with the antigen (in words): P. knowlesi CS protein as antigen
# Method: (§1) Competitive inhibition of the antigen-antibody reaction by the thus synthesized peptides was measured by the following radioimmunoassay. P.knowlesi sporozoite CS protein was used as the antigen. • a) Preparation of antigen: 3,000 purified P. knowlesi sporozoites (Vanderberg et al., Military Medicine 134:1183, 1969) in 50 µl of phosphate buffered saline (PBS) containing protease inhibitors, were delivered to the bottom of polystyrene (Falcon 3911 plate, B-D and Co., Oxnard, Calif.) microtiter plates, which were sealed with parafilm and frozen at -70°C for at least ten minutes. The plates were then allowed to defrost slowly at room temperature. This procedure was repeated six times. Then the plates were incubated at 4°C overnight, and at 56°C for five minutes. The P. knowlesi extract was then removed from the wells and these were washed three times with PBS containing 1% bovine serum albumin (BSA) and 0.1% NaN₃. The wells were then filled with PBS-BSA-NaN₃ and incubated for a few hours at room temperature. • b) Preparation of peptides and two-site radio immunoassay to determine the inhibitory activity of the analogs; • (1) All synthetic peptides were dissolved in PBS at a concentration of 10 mM and subsequently diluted serially in PBS-1% BSA/0.1%NaN₃. Twenty-five µl of serial dilutions of each peptide were added to the wells coated with antigen. Control wells received only the diluent. Then, 25 µl of the ¹²⁵I-labelled monoclonal antibody (about 5-10ng, 10⁵cpm) were added to the wells. The microtiter plates were incubated at 4°C for 18 hours, washed 5 times with PBS-BSA-NaN₃ and then the wells were counted for well-bound antibody.
# The series of shorter analogs and one peptide overlapping two epitopes (7-6) shown in Table VII was used to analyze the specificity of the 2G3, 5H8, and 8B8 antibodies using the inhibition immunoassays described in Examples 10 and 11. […] On a molar basis, their activities were similar, although in some instances the larger peptides appeared to be slightly better inhibitors. […]
# antibody 8E11 = assay: Inhibition by synthetic peptides of binding of radiolabelled monoclonal antibody to CS protein (radioimmunoassay); design: species or system mouse; conditions: at a concentration of 10⁻²M
# Method: as §1, with “The wells were then filled with PBS-BSA-NaN₃ and incubated for a few hours at room temperature. • b) Preparation of peptides and two-site radio immunoassay to determine the inhibitory activity of the analogs; • (1) All synthetic peptides were dissolved in PBS at a concentration of 10 mM and subsequently diluted serially in PBS-1% BSA/0.1%NaN₃. Twenty-five µl of serial dilutions of each peptide were added to the wells coated with antigen. Control wells received only the diluent. Then, 25 µl of the ¹²⁵I-labelled monoclonal antibody (about 5-10ng, 10⁵cpm) were added to the wells.” left out, “antibody. […]” for “antibody.”
# [2] = system: monoclonal antibody (2G3); assay: Inhibition by 12-MER of the binding of P. knowlesi CS protein to monoclonal antibody 2G3 (two-site assay); design: species or system mouse
# Method: To distinguish between these possibilities, an assay was conducted to determine the ability of the 12-MER to inhibit the interaction between the CS proteins of P.knowlesi and the monoclonal antibody 2G3. The inhibition assay was performed as follows: Wells of microtiter plates were coated with the monoclonal antibody 2G3 washed with Tween-20, saturated with BSA as described supra. In one series of tubes, the 12-MER was serially diluted in PBS-BSA-Tween 20. In a second series of tubes, an extract of P.knowlesi sporozoites (prepared as described by Cochrane, et al, supra) was serially diluted in PBS-BSA-Tween 20. Aliquots of each dilution of sporozoites were mixed with equal volumes of all dilutions of 12-MER. 30 µl of these mixtures were then added to the bottom of the 2G3-coated wells. As positive and negative controls, 30 µl aliquots of sporozoite dilutions mixed with PBS-BSA-Tween 20 were added to other wells which had been precoated with 2G3 or with a non-relevant monoclonal antibody. After overnight incubation in the refrigerator, the wells were washed and 50 µl (10 ug) of ¹²⁵I-labeled 2G3 diluted in PBS-BSA-Tween 20 were added. Following an additional incubation at room temperature for 1 hour, the wells were washed and counted in a gamma counter. The results are shown in Table V. The 12-MER inhibited, in a dose-dependent fashion, the interaction of the P.knowlesi CS protein with 2G3.
# monoclonal antibody 2G3 = assay: Two-site immunoradiometric assay with monoclonal antibody 2G3 and synthetic peptides; assay type: binding, mouse
# Method: Wells of microtiter plates (Falcon 3911) were incubated overnight at 4°C with 50 µl of a 10 µg/ml solution in PBS of the monoclonal 2G3 anti-CS protein of P.knowlesi. The wells were washed with PBS and then incubated for 2 hours at room temperature, with PBS-Tween 20 (0.05% (w/v), and then for 3 additional hours with PBS-BSA (1% (w/v). The synthetic peptides were diluted serially in PBS-BSA-Tween 20, and 30 µl aliquots of the dilutions were delivered to the bottom of individual wells. The plates were incubated overnight in the refrigerator, washed with PBS-BSA-Tween 20, and incubated with 5.0 µl (10 ng) of ¹²⁵I-labeled monoclonal antibody 2G3 diluted in PBS-BSA-Tween 20 (about 100,000 cpm). Controls consisted of plates coated with a non-relevant monoclonal antibody of the same isotype as 2G3. Specific counts were found only in wells incubated with the 24-MER and they were proportional to the dose of peptide added to the well.
Substance,"activity in the inhibition assays of the foregoing Examples (in words) ([1]; assayed as in the foregoing Examples (antibodies 2G3, 5H8, 8B8, 8E11))","inhibition of the reaction of antibodies 2G3, 5H8 and 8B8 with the antigen (in words) [1]",inhibitory effect on binding of radiolabelled 8E11 to the CS protein (antibody 8E11),"Amount of 2G3 bound (cpm) in the presence of the 12-MER inhibitor ([2]; 12-MER 0.08 mg/ml, P. knowlesi extract 10³ sporozoites/ml (no inhibitor: 156)) [cpm]","Amount of 2G3 bound (cpm) in the presence of the 12-MER inhibitor ([2]; 12-MER 0.08 mg/ml, P. knowlesi extract 10⁴ sporozoites/ml (no inhibitor: 1353)) [cpm]","Amount of 2G3 bound (cpm) in the presence of the 12-MER inhibitor ([2]; 12-MER 0.08 mg/ml, P. knowlesi extract 10⁵ sporozoites/ml (no inhibitor: 4390)) [cpm]","Amount of 2G3 bound (cpm) in the presence of the 12-MER inhibitor ([2]; 12-MER 0.08 mg/ml, P. knowlesi extract 10⁶ sporozoites/ml (no inhibitor: 5582)) [cpm]","Amount of 2G3 bound (cpm) in the presence of the 12-MER inhibitor ([2]; 12-MER 0.6 mg/ml, P. knowlesi extract 10³ sporozoites/ml (no inhibitor: 156)) [cpm]","Amount of 2G3 bound (cpm) in the presence of the 12-MER inhibitor ([2]; 12-MER 0.6 mg/ml, P. knowlesi extract 10⁴ sporozoites/ml (no inhibitor: 1353)) [cpm]","Amount of 2G3 bound (cpm) in the presence of the 12-MER inhibitor ([2]; 12-MER 0.6 mg/ml, P. knowlesi extract 10⁵ sporozoites/ml (no inhibitor: 4390)) [cpm]","Amount of 2G3 bound (cpm) in the presence of the 12-MER inhibitor ([2]; 12-MER 0.6 mg/ml, P. knowlesi extract 10⁶ sporozoites/ml (no inhibitor: 5582)) [cpm]","Amount of 2G3 bound (cpm) in the presence of the 12-MER inhibitor ([2]; 12-MER 5.0 mg/ml, P. knowlesi extract 10³ sporozoites/ml (no inhibitor: 156)) [cpm]","Amount of 2G3 bound (cpm) in the presence of the 12-MER inhibitor ([2]; 12-MER 5.0 mg/ml, P. knowlesi extract 10⁴ sporozoites/ml (no inhibitor: 1353)) [cpm]","Amount of 2G3 bound (cpm) in the presence of the 12-MER inhibitor ([2]; 12-MER 5.0 mg/ml, P. knowlesi extract 10⁵ sporozoites/ml (no inhibitor: 4390)) [cpm]","Amount of 2G3 bound (cpm) in the presence of the 12-MER inhibitor ([2]; 12-MER 5.0 mg/ml, P. knowlesi extract 10⁶ sporozoites/ml (no inhibitor: 5582)) [cpm]",Amount of radiolabeled 2G3 (cpm) bound in wells (monoclonal antibody 2G3; peptide 5. µg/ml incubated with the solid-phase antibody 2G3) [cpm],Amount of radiolabeled 2G3 (cpm) bound in wells (monoclonal antibody 2G3; peptide 50. µg/ml incubated with the solid-phase antibody 2G3) [cpm],Amount of radiolabeled 2G3 (cpm) bound in wells (monoclonal antibody 2G3; peptide 500. µg/ml incubated with the solid-phase antibody 2G3) [cpm],Amount of radiolabeled 2G3 (cpm) bound in wells (monoclonal antibody 2G3; peptide .5 µg/ml incubated with the solid-phase antibody 2G3) [cpm]
Ala₇-Asn₈-Ala₉-Gly₁₀-Gln₁₁-Pro₁₂-Gln₁-Ala₂-Gln₃-Gly₄-Asp₅-Gly₆,inactive,–,–,–,–,–,–,–,–,–,–,–,–,–,–,–,–,–,–
Asp₅-Gly-Ala-Asn-Ala-Gly-Gln-Pro₁₂ [5 - 12],–,strongly inhibitory,–,–,–,–,–,–,–,–,–,–,–,–,–,–,–,–,–
H₂N-GlnAlaGlnGlyAspGlyAla-AsnAlaGlyGlnPro-COOH (H-QAQGDGANAGQP-OH) [Peptide 12-MER],–,strongly inhibitory,no appreciable inhibitory effect,72,102,1221,3893,0,70,781,3018,37,3,361,1099,40,103,157,0
